This note sets out measurements from patent US20070155746A1, “NOVEL SUBSTITUTED PYRIDINYLOXY AND PYRIMIDINYLOXY AMIDES USEFUL AS INHIBITORS OF PROTEIN KINASES” (KALYPSYS, INC., priority 2005, published 2007).

Format in all cases: biochemical
Assay [1] has as its target T1, PDGFRβ kinase (Homo sapiens, UniProt P09619).
T1 construct: purchased Invitrogen Inc. P3082
Briefly: In vitro PDGFRβ kinase assay. The protocol: (§1) In Vitro VEGFR2 and PDGFRP Kinase Assays
(§2) 2.5 μl of ADP Quest assay buffer (DiscoverX Inc., cat. #90-0071) containing 20 ng VEGFR2 kinase (Invitrogen Inc, cat. #PV3660) or 25 ng PDGFRβ kinase (Invitrogen Inc., cat. #P3082) is dispensed to wells of a 1536 multi-well, black solid plate. 60 nl of 100× concentration of test compound in DMSO is dispensed to the well by passive pin transfer and incubated for 10 minutes at room temperature (approx. 22° C.). 2.5 μl of ADP Quest assay buffer containing 0.25 μg of poly Glu:Tyr (4:1) substrate peptide (Upstate Inc., cat. #12-440) and 60 μM ATP is then dispensed and the kinase reaction allowed to incubate at 30° C. for 2 hours. The assay plates are sealed and maintained in a humidified environment. After the 2 hour incubation, 2 μl of ADP Quest assay reagent A, followed by 2 μl of assay reagent B, is added. After an additional 30 minute incubation at room temperature, fluorescence intensity is measured on a Molecular Devices Aquest multi-mode plate reader or other suitable plate reader (fluorescence excitation filter: 530/25 [Peak(nm)/FWHM passband(nm)]; dichroic beamsplitter: 561 nm longpass; fluorescence emission filter: 580/10 [Peak(nm)/FWHM passband(nm)]. The assay measures the conversion of a non-fluoresecent molecule to fluorescent resorufin, which correlates with kinase activity. Negative control activity is measured with DMSO lacking any test compound. The positive control is [N-(3-trifluoromethyl-4-chlorophenyl)-N′-(4-(2-methylcarbamoyl-pyridin-4-yl)oxyphenyl)urea], aka Bay 43-9006. Efficacy is measured as a percentage of positive control activity.

The target of assay [2] is T2, VEGFR2 kinase (Homo sapiens, UniProt P35968).
T2 construct: purchased Invitrogen Inc PV3660
Briefly: In vitro VEGFR2 kinase assay. The protocol: as §1, §2

The target in assay [3] is T3, human B-Raf protein kinase (Homo sapiens, UniProt P15056).
T3 construct: GST (N); purchased Upstate Inc. 14-530 (B-Raf); 14-420 (Mek1)
Briefly: In vitro B-Raf/Mek1 composite kinase assay. The protocol:
In Vitro B-Raf/Mek1 Composite Kinase Assay
2.5 μl of B-Raf kinase buffer (20 mM MOPS [pH 7.2], 25 mM sodium glycerophosphate, 2 mM EGTA [pH 8.0], 1 mM sodium orthovanadate, 1 mM dithiothreitol, 10 mM MgCl2, 0.03% Brij-35, 0.3 mg/ml bovine serum albumin) containing lng of recombinant, N-terminal GST-tagged human B-Raf protein kinase (Δ1-415, Upstate Inc., cat. #14-530) is dispensed to wells of a 1536 multi-well white solid plate. 60 nl of 100× concentration of test compound in DMSO is dispensed to the well by passive pin transfer and incubated for 15 minutes at room temperature (approx. 22° C.). […] The assay plates are sealed and maintained in a humidified environment. After 2 hours, 2.5 μl of PKLight protein kinase assay reagent (Cambrex, cat. #LT07-501) is dispensed. After an additional 5 minute incubation at room temperature, luminescence activity is measured on a Molecular Devices Analyst multi-mode plate reader or other suitable plate reader. Kinase inhibition results in less ATP depletion, and therefore increased luminescence signal. Negative control activity is measured with DMSO lacking any test compound. The positive control is [N-(3-trifluoromethyl-4-chlorophenyl)-N′-(4-(2-methylcarbamoyl-pyridin-4-yl)oxyphenyl)urea], aka Bay 43-9006. Efficacy is measured as a percentage of positive control activity.

SMILES strings stand for the structures.

T2 sequence (P35968 20-1356): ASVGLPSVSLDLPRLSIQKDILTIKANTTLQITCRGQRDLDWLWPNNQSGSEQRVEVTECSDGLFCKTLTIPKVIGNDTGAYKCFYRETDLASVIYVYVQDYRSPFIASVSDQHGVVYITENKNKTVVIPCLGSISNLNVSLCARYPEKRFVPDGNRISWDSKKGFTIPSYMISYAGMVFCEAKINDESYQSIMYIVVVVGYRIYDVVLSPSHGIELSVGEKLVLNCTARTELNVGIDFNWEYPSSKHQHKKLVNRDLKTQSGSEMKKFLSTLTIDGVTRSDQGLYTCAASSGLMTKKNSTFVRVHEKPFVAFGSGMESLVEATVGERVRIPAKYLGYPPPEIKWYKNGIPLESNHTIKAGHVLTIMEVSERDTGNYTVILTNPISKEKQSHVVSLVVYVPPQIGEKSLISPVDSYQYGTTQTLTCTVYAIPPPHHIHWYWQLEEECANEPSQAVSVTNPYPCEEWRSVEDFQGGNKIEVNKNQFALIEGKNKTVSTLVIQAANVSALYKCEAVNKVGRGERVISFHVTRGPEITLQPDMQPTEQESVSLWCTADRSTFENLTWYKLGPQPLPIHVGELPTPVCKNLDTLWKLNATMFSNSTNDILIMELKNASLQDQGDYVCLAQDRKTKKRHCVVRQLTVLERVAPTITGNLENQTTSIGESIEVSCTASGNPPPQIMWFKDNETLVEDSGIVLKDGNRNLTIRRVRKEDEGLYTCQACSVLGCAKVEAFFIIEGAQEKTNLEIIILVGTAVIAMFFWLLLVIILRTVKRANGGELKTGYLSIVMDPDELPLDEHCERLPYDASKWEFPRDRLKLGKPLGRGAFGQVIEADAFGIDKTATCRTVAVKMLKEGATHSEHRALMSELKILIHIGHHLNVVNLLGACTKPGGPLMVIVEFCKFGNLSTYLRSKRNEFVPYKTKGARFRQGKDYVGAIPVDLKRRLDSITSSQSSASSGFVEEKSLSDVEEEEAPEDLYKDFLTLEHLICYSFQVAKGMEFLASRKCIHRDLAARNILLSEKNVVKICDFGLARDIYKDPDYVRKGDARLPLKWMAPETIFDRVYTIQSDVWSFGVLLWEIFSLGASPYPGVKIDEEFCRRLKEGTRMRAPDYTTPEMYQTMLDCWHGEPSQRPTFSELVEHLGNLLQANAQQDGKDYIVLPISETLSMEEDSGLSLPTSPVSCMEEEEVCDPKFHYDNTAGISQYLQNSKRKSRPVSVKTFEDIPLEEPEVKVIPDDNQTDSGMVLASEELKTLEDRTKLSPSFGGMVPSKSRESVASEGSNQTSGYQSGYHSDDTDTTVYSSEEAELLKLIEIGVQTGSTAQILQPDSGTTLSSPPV
T3 sequence (P15056 416-766): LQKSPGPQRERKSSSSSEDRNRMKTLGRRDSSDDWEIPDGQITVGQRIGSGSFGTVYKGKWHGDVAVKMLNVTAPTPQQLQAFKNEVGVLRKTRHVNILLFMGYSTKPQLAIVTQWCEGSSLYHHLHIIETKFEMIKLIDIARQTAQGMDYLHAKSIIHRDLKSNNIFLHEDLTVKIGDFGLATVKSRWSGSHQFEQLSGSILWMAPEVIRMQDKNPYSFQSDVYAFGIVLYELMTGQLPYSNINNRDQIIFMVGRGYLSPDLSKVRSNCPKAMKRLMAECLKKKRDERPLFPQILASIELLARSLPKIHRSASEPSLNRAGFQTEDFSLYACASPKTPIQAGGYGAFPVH
T1 sequence (P09619 33-1106): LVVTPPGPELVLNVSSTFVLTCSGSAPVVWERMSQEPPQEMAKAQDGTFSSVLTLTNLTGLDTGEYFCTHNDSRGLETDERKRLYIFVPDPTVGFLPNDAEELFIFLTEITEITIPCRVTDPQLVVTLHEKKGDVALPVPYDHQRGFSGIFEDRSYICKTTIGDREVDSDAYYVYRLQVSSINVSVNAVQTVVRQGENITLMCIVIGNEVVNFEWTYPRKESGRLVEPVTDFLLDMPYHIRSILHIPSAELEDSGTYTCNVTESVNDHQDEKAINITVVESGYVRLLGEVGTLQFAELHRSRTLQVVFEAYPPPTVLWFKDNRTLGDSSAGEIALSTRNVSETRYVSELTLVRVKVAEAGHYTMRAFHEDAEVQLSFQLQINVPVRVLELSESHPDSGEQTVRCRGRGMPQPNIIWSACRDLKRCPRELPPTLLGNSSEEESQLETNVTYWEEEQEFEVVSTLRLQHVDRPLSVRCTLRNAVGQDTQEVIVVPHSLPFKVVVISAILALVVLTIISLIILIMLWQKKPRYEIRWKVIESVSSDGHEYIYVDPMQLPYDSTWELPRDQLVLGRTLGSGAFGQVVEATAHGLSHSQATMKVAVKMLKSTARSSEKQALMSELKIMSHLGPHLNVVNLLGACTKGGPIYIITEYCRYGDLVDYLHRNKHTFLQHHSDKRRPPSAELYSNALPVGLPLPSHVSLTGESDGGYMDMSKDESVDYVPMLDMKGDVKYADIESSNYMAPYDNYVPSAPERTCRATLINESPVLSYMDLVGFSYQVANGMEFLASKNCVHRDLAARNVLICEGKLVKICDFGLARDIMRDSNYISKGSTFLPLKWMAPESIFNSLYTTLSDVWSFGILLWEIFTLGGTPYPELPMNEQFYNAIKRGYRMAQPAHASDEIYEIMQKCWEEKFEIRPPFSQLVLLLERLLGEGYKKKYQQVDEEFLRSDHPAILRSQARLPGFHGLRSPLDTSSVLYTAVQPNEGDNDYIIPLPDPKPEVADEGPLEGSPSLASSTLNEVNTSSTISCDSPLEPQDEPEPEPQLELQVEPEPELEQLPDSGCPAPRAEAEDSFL

With `Cn1cc(-c2cc(Oc3cccc(NC(=O)c4ccc(-n5ccnc5)cc4)c3)ccn2)cn1` [Example 60, 4-(1H-Imidazol-1-yl)-N-(3-(2-(1-methyl-1H-pyrazol-4-yl)pyridin-4-yloxy)phenyl)benzamide], the IC50 was above 10 µM in assay [1], above 10 µM in assay [2] and at most 10 µM in assay [3].
`Cn1cc(-c2cc(Oc3cccc(NC(=O)c4cccc5c4OC(F)(F)O5)c3)ccn2)cn1` [Example 30, 2,2-Difluoro-N-(3-(2-(1-methyl-1H-pyrazol-4-yl)pyridin-4-yloxy)phenyl)benzo[d][1,3]dioxole-4-carboxamide]: the IC50 in assay [1], in assay [2] and in assay [3] was above 10 µM in each case.
With `CCOc1cc(C(=O)Nc2cccc(Oc3ccnc(-c4nnco4)c3)c2)cc(OCC)c1OCC` [Example 2, N-(3-(2-(1,3,4-Oxadiazol-2-yl)pyridin-4-yloxy)phenyl)-3,4,5-triethoxybenzamide], the IC50 in assay [1] was above 10 µM; in assay [2], at most 10 µM; in assay [3] it was above 10 µM.
Consider `Cn1cc(-c2cc(Oc3cccc(NC(=O)c4ccc5ccccc5c4)c3)ccn2)cn1` [Example 53, N-(3-(2-(1-Methyl-1H-pyrazol-4-yl)pyridin-4-yloxy)phenyl)-2-naphthamide], for which the IC50 in assay [1], in assay [2] and in assay [3] was above 10 µM each time.
Take `Cn1cc(-c2cc(Oc3cccc(NC(=O)c4ccc(OC(F)(F)F)cc4)c3)ncn2)cn1` [Example 23, N-(3-(6-(1-Methyl-1H-pyrazol-4-yl)pyrimidin-4-yloxy)phenyl)-4-(trifluoromethoxy)benzamide]: the IC50 in assay [1], in assay [2] and in assay [3] was above 10 µM in each case.
For `O=C(Nc1cccc(Oc2ccnc(-c3nnco3)c2)c1)c1cccc(N2CCCCC2)c1` [Example 11, N-[3-(2-[1,3,4]Oxadiazol-2-yl-pyridin-4-yloxy)-phenyl]-3-piperidin-1-yl-benzamide], the figures for the IC50 in assay [1], in assay [2] and in assay [3] were above 10 µM, at most 10 µM and above 10 µM, respectively.
As to `Cn1cc(-c2cc(Oc3ccc(F)c(NC(=O)c4ccc(Cl)c(C(F)(F)F)c4)c3)ncn2)cn1` [Example 26, 4-Chloro-N-(2-fluoro-5-(6-(1-methyl-1H-pyrazol-4-yl)pyrimidin-4-yloxy)phenyl)-3-(trifluoromethyl)benzamide], the IC50 in assay [1], in assay [2] and in assay [3] was above 10 µM each time.
Consider `Cn1cc(-c2cc(Oc3cccc(NC(=O)c4cccc(-n5ccnc5)c4)c3)ccn2)cn1` [Example 37, 3-(1H-Imidazol-1-yl)-N-(3-(2-(1-methyl-1H-pyrazol-4-yl)pyridin-4-yloxy)phenyl) benzamide], for which the IC50 in assay [1], in assay [2] and in assay [3] was above 10 µM each time.
On to `Cn1cc(-c2cc(Oc3cccc(NC(=O)c4ccc(C(F)(F)F)cc4)c3)ccn2)cn1` [Example 45, N-(3-(2-(1-Methyl-1H-pyrazol-4-yl)pyridin-4-yloxy)phenyl)-4-(trifluoromethyl)benzamide], for which the IC50 in assay [1] was above 10 µM; in assay [2], above 10 µM; in assay [3], at most 10 µM.
Regarding `Cn1cc(-c2cc(Oc3cccc(NC(=O)c4ccccc4C(F)(F)F)c3)ccn2)cn1` [Example 43, N-(3-(2-(1-Methyl-1H-pyrazol-4-yl)pyridin-4-yloxy)phenyl)-2-(trifluoromethyl)benzamide], the IC50 in assay [1], in assay [2] and in assay [3] was at most 10 µM each time.
Consider `Cn1cc(-c2cc(Oc3cccc(NC(=O)c4ccccc4Oc4ccccc4)c3)ccn2)cn1` [Example 54, N-(3-(2-(1-Methyl-1H-pyrazol-4-yl)pyridin-4-yloxy)phenyl)-2-phenoxybenzamide], for which the IC50 in assay [1] is at most 10 µM; in assay [2], above 10 µM; in assay [3], at most 10 µM.
Take `O=C(Cc1ccc(F)c(C(F)(F)F)c1)Nc1cccc(Oc2ccnc(-c3nnco3)c2)c1` [Example 1, N-(3-(2-(1,3,4-Oxadiazol-2-yl)pyridin-4-yloxy)phenyl)-2-(4-fluoro-3-(trifluoromethyl)phenyl)acetamide]: the IC50 was above 10 µM in assay [1], at most 10 µM in assay [2] and above 10 µM in assay [3].
Turning to `Cn1cc(-c2cc(Oc3cccc(NC(=O)c4cc(OC(F)(F)F)cc(OC(F)(F)F)c4)c3)ccn2)cn1` [Example 41, N-(3-(2-(1-methyl-1H-pyrazol-4-yl)pyridin-4-yloxy)phenyl)-3,5-bis(trifluoromethoxy)benzamide], the IC50 in assay [1], in assay [2] and in assay [3] was above 10 µM in each case.
On to `Cn1cc(-c2cc(Oc3cccc(NC(=O)c4cccc(-c5ccccc5)c4)c3)ccn2)cn1` [Example 31, N-(3-(2-(1-Methyl-1H-pyrazol-4-yl)pyridin-4-yloxy)phenyl)biphenyl-3-carboxamide], for which the IC50 in assay [1], in assay [2] and in assay [3] was above 10 µM throughout.
For the compound `CCOc1cc(OCC)cc(C(=O)Nc2cccc(Oc3ccnc(C(=O)NC)c3)c2)c1` [Example 14, 4-(3-(3,5-Diethoxybenzamido)phenoxy)-N-methylpicolinamide], the IC50 in assay [1], in assay [2] and in assay [3] was above 10 µM in each case.
As for `Cn1cc(-c2cc(Oc3cccc(NC(=O)c4ccccc4C(=O)c4ccccc4)c3)ccn2)cn1` [Example 49, 2-Benzoyl-N-(3-(2-(1-methyl-1H-pyrazol-4-yl)pyridin-4-yloxy)phenyl)benzamide], the IC50 in assay [1] is at most 10 µM; in assay [2] it was at most 10 µM; in assay [3] it was above 10 µM.
On to `CCCCOc1cc(C(=O)Nc2cccc(Oc3ccnc(-c4nnco4)c3)c2)ccc1OC` [Example 10, N-(3-(2-(1,3,4-Oxadiazol-2-yl)pyridin-4-yloxy)phenyl)-3-butoxy-4-methoxybenzamide], for which the IC50 in assay [1] is at most 10 µM; in assay [2], at most 10 µM; in assay [3], above 10 µM.
Consider `Cn1cc(-c2cc(Oc3cccc(NC(=O)c4cccc5c4OCC5)c3)ccn2)cn1` [Example 68, N-(3-(2-(1-Methyl-1H-pyrazol-4-yl)pyridin-4-yloxy)phenyl)-2,3-dihydrobenzofuran-7-carboxamide], for which the IC50 was above 10 µM in assay [1], above 10 µM in assay [2] and at most 10 µM in assay [3].
`Cn1cc(-c2cc(Oc3cccc(NC(=O)c4cccc5c4OCO5)c3)ccn2)cn1` [Example 29, N-(3-(2-(1-Methyl-1H-pyrazol-4-yl)pyridin-4-yloxy)phenyl)benzo[d][1,3]dioxole-4-carboxamide]: the IC50 is above 10 µM in assay [1], above 10 µM in assay [2] and at most 10 µM in assay [3].
As to `Cn1cc(-c2cc(Oc3cccc(NC(=O)c4ccc(OC(F)(F)F)cc4OC(F)(F)F)c3)ccn2)cn1` [Example 42, N-(3-(2-(1-Methyl-1H-pyrazol-4-yl)pyridin-4-yloxy)phenyl)-2,4-bis(trifluoromethoxy)benzamide], the IC50 is above 10 µM in assay [1], at most 10 µM in assay [2] and at most 10 µM in assay [3].
`Cn1cc(-c2cc(Oc3cccc(NC(=O)c4cccc(C#N)c4)c3)ccn2)cn1` [Example 46, 3-Cyano-N-(3-(2-(1-methyl-1H-pyrazol-4-yl)pyridin-4-yloxy)phenyl)benzamide]: the IC50 was above 10 µM in assay [1], above 10 µM in assay [2] and at most 10 µM in assay [3].
Take `CCOc1cc(OCC)cc(C(=O)Nc2cccc(Oc3cc(-c4nc(C(F)(F)F)c[nH]4)ncn3)c2)c1` [Example 18, 3,5-Diethoxy-N-(3-(6-(4-(trifluoromethyl)-1H-imidazol-2-yl)pyrimidin-4-yloxy)phenyl)benzamide]: the IC50 in assay [1] was at most 10 µM; in assay [2], at most 10 µM; in assay [3], above 10 µM.

The IC50 is the concentration needed to halve the response being measured. Low values mean greater potency, high ones weaker potency.
